Reference: the supplement of paper PMC10307832

Key:
Test in all cases: relative viability (nuclei count vs DMSO), 5 days (fraction); higher = more cells survive
[1] = compound: CCn1c(-c2nonc2N)nc2c(C#CC(C)(C)O)ncc(OC[C@H]3CCCNC3)c21 + CC(=O)Nc1cccc(-n2c(=O)n(C3CC3)c(=O)c3c(Nc4ccc(I)cc4F)n(C)c(=O)c(C)c32)c1 [Trametinib] (partner 0.02 µM)
How it was run: (§1)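 After 5 days of treatment, lung cancer cells in 1536-well plates were fixed and stained in a single step (final 0.05% Triton X-100, 1% formaldehyde, 1 ug/ml Hoechst) and their nuclei counted on 4× images. Treatment had been applied by pin tool the day after seeding as one drug alone or as a fixed anchor-drug dose with five library-drug doses (not always all listed) in √10 steps. Relative viability is the nuclei count of treated wells divided by that of vehicle wells, and values are medians of duplicate plates.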

BAM7 + Foretinib = compound: CCOC1=CC=CC=C1N=NC2=C(NN(C2=O)C3=NC(=CS3)C4=CC=CC=C4)C [BAM7] + COc1cc2c(Oc3ccc(NC(=O)C4(C(=O)Nc5ccc(F)cc5)CC4)cc3F)ccnc2cc1OCCCN1CCOCC1 [Foretinib] (partner 0.25 µM)
How it was run: as §1

BAM7 + Crizotinib = compound: CCOC1=CC=CC=C1N=NC2=C(NN(C2=O)C3=NC(=CS3)C4=CC=CC=C4)C [BAM7] + C[C@@H](Oc1cc(-c2cnn(C3CCNCC3)c2)cnc1N)c1c(Cl)ccc(F)c1Cl [Crizotinib] (partner 1 µM)
How it was run: as §1

[2] = compound: CCn1c(-c2nonc2N)nc2c(C#CC(C)(C)O)ncc(OC[C@H]3CCCNC3)c21 + CS(=O)(=O)N1CCN(Cc2cc3nc(-c4cccc5[nH]ncc45)nc(N4CCOCC4)c3s2)CC1 [Pictilisib] (partner 1 µM)
How it was run: as §1

Cell Line | relative viability ([1]; first compound 0.01 µM) | relative viability ([1]; first compound 0.03162 µM) | relative viability ([1]; first compound 0.1 µM) | relative viability ([1]; first compound 0.3162 µM) | relative viability ([1]; first compound 1 µM) | relative viability (BAM7 + Foretinib; first compound 0.5 µM) | relative viability (BAM7 + Foretinib; first compound 5 µM) | relative viability (BAM7 + Foretinib; first compound 15.81 µM) | relative viability (BAM7 + Foretinib; first compound 50 µM) | relative viability (BAM7 + Crizotinib; first compound 0.5 µM) | relative viability (BAM7 + Crizotinib; first compound 5 µM) | relative viability (BAM7 + Crizotinib; first compound 15.81 µM) | relative viability (BAM7 + Crizotinib; first compound 50 µM) | relative viability ([2]; first compound 0.01 µM) | relative viability ([2]; first compound 0.03162 µM) | relative viability ([2]; first compound 0.1 µM) | relative viability ([2]; first compound 0.3162 µM) | relative viability ([2]; first compound 1 µM)
NCI-H522 | 0.826 | 0.763 | 0.783 | 0.667 | 0.82 | – | – | – | – | – | – | – | – | – | – | – | – | –
HCC-15 | 0.358 | 0.352 | 0.385 | 0.39 | 0.354 | 1 | 1.04 | 0.982 | 1 | 0.812 | 0.811 | 0.785 | 0.724 | 0.689 | 0.724 | 0.685 | 0.738 | 0.743
A-427 | 0.771 | 0.81 | 0.742 | 0.691 | 0.775 | 1.11 | 1.07 | 1.05 | 1.05 | 0.927 | 1 | 0.814 | 0.817 | 0.754 | 0.649 | 0.747 | 0.732 | 0.554
NCI-H2228 | 0.553 | 0.449 | 0.468 | 0.325 | 0.197 | 1.04 | 0.964 | 0.879 | 1.16 | 0.657 | 0.426 | 0.349 | 0.641 | 0.295 | 0.386 | 0.347 | 0.216 | 0.294
NCI-H1734 | 0.705 | 0.664 | 0.678 | 0.584 | 0.679 | 0.849 | 1 | 0.779 | 0.825 | 0.868 | 0.634 | 0.556 | 0.685 | 0.456 | 0.466 | 0.403 | 0.423 | 0.461
PC-14 | 0.716 | 0.772 | 0.613 | 0.446 | 0.444 | 0.981 | 1.03 | 0.888 | 1.01 | 1.07 | 0.99 | 0.805 | 0.859 | 0.633 | 0.754 | 0.75 | 0.72 | 0.564
NCI-H1915 | 0.293 | 0.3 | 0.299 | 0.281 | 0.308 | 1.21 | 1.15 | 1.02 | 1.02 | 0.892 | 0.918 | 0.874 | 0.891 | 0.977 | 0.941 | 0.957 | 0.871 | 0.979
NCI-H1666 | 0.819 | 0.791 | 0.861 | 0.819 | 0.878 | 0.945 | 1.1 | 0.996 | 1.06 | 1.07 | 1.02 | 1.03 | 0.967 | 0.533 | 0.395 | 0.543 | 0.408 | 0.392
HCC-366 | 0.391 | 0.312 | 0.364 | 0.334 | 0.293 | 0.92 | 0.849 | 0.94 | 0.836 | 0.552 | 0.654 | 0.471 | 0.641 | 0.235 | 0.214 | 0.12 | 0.131 | 0.218
SK-MES-1 | 0.61 | 0.52 | 0.569 | 0.465 | 0.503 | 0.913 | 1.06 | 0.937 | 1.08 | 1.05 | 1.01 | 0.961 | 1.04 | 0.399 | 0.351 | 0.363 | 0.339 | 0.314
SW 1573 | 0.438 | 0.553 | 0.476 | 0.381 | 0.33 | 0.939 | 0.997 | 1.04 | 0.966 | 0.974 | 0.962 | 0.778 | 0.8 | 0.432 | 0.395 | 0.453 | 0.447 | 0.365
NCI-H661 | 0.52 | 0.615 | 0.521 | 0.491 | 0.569 | 1.02 | 1.08 | 0.964 | 1.11 | 1.27 | 1.08 | 0.971 | 0.931 | 0.368 | 0.564 | 0.299 | 0.385 | 0.401
PC-3 [JPC-3] | 0.702 | – | 0.732 | 0.648 | 0.687 | 0.923 | 0.948 | 0.819 | 0.915 | 0.913 | 0.942 | 0.784 | 0.827 | 0.754 | 0.744 | 0.762 | 0.695 | 0.643
NCI-H1623 | – | – | – | – | – | 0.905 | 0.831 | 0.689 | 0.786 | – | – | – | – | – | – | – | – | –
Calu-6 | – | – | – | – | – | 0.939 | 0.951 | 0.891 | 0.893 | 0.883 | 0.903 | 0.783 | 0.675 | 0.886 | 0.973 | 0.946 | 0.942 | 0.909
LC-2-ad | 0.9 | 0.93 | 0.91 | 0.89 | 0.933 | 0.908 | 0.911 | 0.829 | 0.908 | 0.488 | 0.518 | 0.46 | 0.463 | 0.303 | 0.507 | 0.505 | 0.385 | 0.397
CAL-12T | 0.303 | 0.388 | 0.322 | 0.317 | 0.297 | 1.22 | 1.18 | 1.09 | 1.23 | 0.737 | 0.941 | 0.695 | 0.652 | 0.327 | 0.374 | 0.351 | 0.306 | 0.329
RERF-LC-KJ | 0.854 | 0.818 | 0.842 | 0.778 | 0.835 | 0.821 | 0.832 | 0.81 | 0.833 | 0.834 | 0.786 | 0.78 | 0.793 | 0.578 | 0.566 | 0.556 | 0.567 | 0.535
NCI-H1650 | 0.548 | 0.582 | 0.559 | 0.51 | 0.551 | 1.34 | 1.2 | 1.01 | 1.04 | 0.882 | 1.07 | 0.939 | 0.848 | 0.531 | 0.602 | 0.441 | 0.586 | 0.562
